Several values for one entry are separate records, joined by “and”; a condition that tells them apart may be missing. Equal entries are not always repeated.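 Each compound was tested at five concentrations against cells in 96-well plates for 48 hours. At the GI50, growth is halved. TGI denotes the concentration required for complete inhibition of growth.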
Key:
Assay in all cases: NCI-60 cell line screen, 48 h
[1] = system: 786-0 renal
[2] = system: A498 renal
[3] = system: A549 NSCLC
[4] = system: ACHN renal
[5] = system: BT-549 breast
[6] = system: CCRF-CEM leukemia
[7] = system: COLO 205 colon
[8] = system: DU-145 prostate
[9] = system: EKVX NSCLC
[10] = system: HCC-2998 colon
[11] = system: HCT-116 colon
[12] = system: HCT-15 colon
[13] = system: HL-60(TB) leukemia
[14] = system: HOP-62 NSCLC
[15] = system: HOP-92 NSCLC
[16] = system: HS 578T breast
[17] = system: HT29 colon
[18] = system: IGROV1 ovarian
[19] = system: K-562 leukemia
[20] = system: KM12 colon
[21] = system: LOX IMVI melanoma
[22] = system: M14 melanoma
[23] = system: MCF7 breast
[24] = system: MDA-MB-231 breast
[25] = system: MDA-MB-435
[26] = system: MOLT-4 leukemia
[27] = system: NCI-H226 lung
[28] = system: NCI-H23 lung
[29] = system: NCI-H460 lung
[30] = system: NCI-H522 lung
[31] = system: NCI/ADR-RES ovarian
[32] = system: OVCAR-3 ovarian
[33] = system: OVCAR-4 ovarian
[34] = system: OVCAR-5 ovarian
[35] = system: OVCAR-8 ovarian
[36] = system: PC-3 prostate
[37] = system: RPMI-8226 leukemia
[38] = system: RXF 393 renal
[39] = system: SF-268 CNS
[40] = system: SF-295 CNS
[41] = system: SF-539 CNS
[42] = system: SK-MEL-2 melanoma
[43] = system: SK-MEL-28 melanoma
[44] = system: SK-MEL-5 melanoma
[45] = system: SK-OV-3 ovarian
[46] = system: SN12C renal
[47] = system: SNB-19 CNS
[48] = system: SNB-75 CNS
[49] = system: SR leukemia
[50] = system: SW-620 colon
[51] = system: T-47D breast
[52] = system: TK-10 renal
[53] = system: U251 CNS
[54] = system: UACC-62 melanoma
[55] = system: UO-31 renal

For `CC[C@H](C)[C@H](NC(=O)[C@H]1CCCCN1C)C(=O)N(C)[C@H](C[C@@H](OC(C)=O)c1cccc(C(=O)N[C@@H](Cc2ccccc2)C[C@H](C)C(=O)OC)n1)C(C)C`, the GI50 [1] was 5.26 nM and 4.25 nM, the TGI [1] was 18300 nM and the GI50 [2] was 4.45 nM and 2.5 nM. For the same compound, the TGI [2] was 16.6 nM, the GI50 [3] was 37.7 nM and 9.74 nM and the TGI [3] was over 25000 nM. The GI50 [4] was 6.38 nM and 13 nM, the TGI [4] was over 25000 nM and the GI50 [5] was 2.5 nM. The TGI [5] was 222 nM, the GI50 [6] was 4.95 nM and 2.5 nM and the TGI [6] was over 25000 nM. The GI50 [7] was 1.82 nM and 2.5 nM, the TGI [7] was 13.2 nM and 4.46 nM and the GI50 [8] was 2.82 nM and 2.5 nM. For the same compound, the TGI [8] was over 25000 nM, the GI50 [9] was 8.38 nM and 8.63 nM and the TGI [9] was over 25000 nM. The GI50 [10] was 3.62 nM and 2.5 nM, the TGI [10] was over 25000 nM and the GI50 [11] was 3.25 nM and 2.5 nM. The TGI [11] was over 25000 nM, the GI50 [12] was 8.15 nM and 7.02 nM and the TGI [12] was 9640 nM. The GI50 [13] was 1.7 nM and < 2.5 nM, the TGI [13] was 6.55 nM and < 2.5 nM and the GI50 [14] was 6.5 nM and 4.27 nM. For the same compound, the TGI [14] was over 25000 nM, the GI50 [15] was 0.632 nM and 2.5 nM and the GI50 [16] was 42.3 nM and 6.13 nM. For the same compound, the TGI [16] was over 25000 nM, the GI50 [17] was 1.82 nM and 2.5 nM and the TGI [17] was 42.1 nM. For the same compound, the GI50 [18] was 0.812 nM and 5.06 nM, the TGI [18] was over 25000 nM and the GI50 [19] was 2.43 nM and 2.5 nM. The TGI [19] was over 25000 nM, the GI50 [20] was 1.88 nM and 2.5 nM and the TGI [20] was over 25000 nM. For the same compound, the GI50 [21] was 6.7 nM and 2.5 nM, the TGI [21] was over 25000 nM and the GI50 [22] was 2.27 nM. The TGI [22] was 12.8 nM, the GI50 [23] was 0.334 nM and 2.5 nM and the TGI [23] was over 25000 nM. For the same compound, the GI50 [24] was 4.27 nM and 2.67 nM, the TGI [24] was 850 nM and the GI50 [25] was 0.28 nM. The TGI [25] was 1.43 nM, the GI50 [26] was 8.11 nM and 11.1 nM and the TGI [26] was over 25000 nM. For the same compound, the GI50 [27] was 456 nM and 51.4 nM, the TGI [27] was over 25000 nM and the GI50 [28] was 4.43 nM and 5.21 nM. For the same compound, the TGI [28] was over 25000 nM, the GI50 [29] was 3.8 nM and 2.5 nM and the TGI [29] was over 25000 nM. For the same compound, the GI50 [30] was 1.54 nM and 2.5 nM, the TGI [30] was 8.94 nM and the GI50 [31] was 175 nM and 276 nM. The TGI [31] was over 25000 nM, the GI50 [32] was 0.398 nM and < 2.5 nM and the TGI [32] was 3.08 nM and < 2.5 nM. For the same compound, the GI50 [33] was 27.7 nM and 13.8 nM, the TGI [33] was over 25000 nM and the GI50 [34] was 13.7 nM. For the same compound, the TGI [34] was over 25000 nM, the GI50 [35] was 7.97 nM and 5.6 nM and the TGI [35] was over 25000 nM. For the same compound, the GI50 [36] was 3.2 nM and 2.5 nM, the TGI [36] was over 25000 nM and the GI50 [37] was 2.68 nM and 2.5 nM. For the same compound, the TGI [37] was 14500 nM, the GI50 [38] was 3.16 nM and the GI50 [39] was 4.98 nM and 6.61 nM. For the same compound, the TGI [39] was over 25000 nM, the GI50 [40] was 4.33 nM and 2.5 nM and the TGI [40] was 7.76 nM. It also gave a GI50 [41] of 5.92 nM, a TGI [41] of 18.3 nM and a GI50 [42] of 2.5 nM. For the same compound, the TGI [42] was 10300 nM, the GI50 [43] was 9.37 nM and the GI50 [44] was 1.07 nM and 2.5 nM. The TGI [44] was 38.2 nM and 33.3 nM, the GI50 [45] was 3.08 nM and 3.14 nM and the TGI [45] was over 25000 nM. The GI50 [46] was 5.67 nM and 11.3 nM, the TGI [46] was over 25000 nM and the GI50 [47] was 4.61 nM and 2.5 nM. For the same compound, the TGI [47] was over 25000 nM, the GI50 [48] was 3.66 nM and 4.79 nM and the TGI [48] was over 25000 nM. For the same compound, the GI50 [49] was 0.55 nM and 2.5 nM, the TGI [49] was over 25000 nM and the GI50 [50] was 3.17 nM and 2.5 nM. For the same compound, the TGI [50] was over 25000 nM, the GI50 [51] was 0.953 nM and the TGI [52] was over 25000 nM. The GI50 [53] was 4.08 nM and 3.81 nM, the TGI [53] was over 25000 nM and the GI50 [54] was 0.589 nM and 2.5 nM. It also gave a TGI [54] of over 25000 nM and a TGI [55] of over 25000 nM.

Reference: PubChem BioAssay (NCI)
